pIC50: −log10 of the molar value. Counter-ions that a name gives are not always drawn. Like-named read-outs stand apart in the source and are kept apart here.
Legend:
H460 = test: cells; format: cell-based; conditions: for pIC50: Homo sapiens
HT29 = test: cells; format: cell-based; conditions: for pIC50: Homo sapiens, HT-29, 2 h
[1] = NCI-H460, read-out: 2 h Air H460 monolayer IC50
[2] = NCI-H460, read-out: 2 h N2 H460 monolayer IC50
[3] = NCI-H460, 2 h, read-out: 2 hr Air H460 IC50
[4] = NCI-H460, 2 h, read-out: 2 hr N2 H460 IC50

Row | SMILES | pIC50 (H460; [1]) | pIC50 (H460; [2]) | H460 HCR: Air/N2 (H460) | pIC50 (H460; [3]) | pIC50 (H460; [4]) | also measured
1 | Cc1cc(OS(=O)(=O)Cc2ccsc2[N+](=O)[O-])ccc1N(CCCl)CCCl [TH-1103] | 6.15 | 7.00 | – | – | – | –
2 | Cn1c(CS(=O)(=O)Nc2ccc(N(CCCl)CCCl)cc2)cnc1[N+](=O)[O-] [TH-1104] | 5.13 | 5.21 | – | – | – | –
3 | O=[N+]([O-])c1nccn1CS(=O)(=O)Nc1ccc(N(CCCl)CCCl)cc1 [TH-1105] | 5.12 | 5.38 | – | – | – | –
4 | Cc1cc(OS(=O)(=O)Cn2ccnc2[N+](=O)[O-])ccc1N(CCCl)CCCl [TH-1106] | 6.05 | 6.70 | – | – | – | –
5 | CN(c1ccc(N(CCCl)CCCl)cc1)S(=O)(=O)Cc1cnc([N+](=O)[O-])n1C [TH-1108] | 4.82 | 4.96 | – | – | – | –
6 | Cc1cc(OS(=O)(=O)Cc2ncc([N+](=O)[O-])n2C)ccc1N(CCCl)CCCl [TH-1110] | 5.85 | 5.68 | – | – | – | –
7 | Cc1cc(OS(=O)(=O)Cc2ncn(C)c2[N+](=O)[O-])ccc1N(CCCl)CCCl [TH-1111] | 5.33 | 5.60 | – | – | – | –
8 | Cc1cc(OS(=O)(=O)Cc2nc(C)n(C)c2[N+](=O)[O-])ccc1N(CCCl)CCCl [TH-1112] | 5.85 | 5.77 | – | – | – | –
9 | Cc1cc(OS(=O)(=O)C(C)(C)c2ccc([N+](=O)[O-])cc2)ccc1N(CCCl)CCCl [TH-1115] | 4.89 | 5.52 | – | – | – | –
10 | Cc1cc(OS(=O)(=O)C(C)(C)c2ccc([N+](=O)[O-])cc2)ccc1N(CCBr)CCBr [TH-1116] | 5.96 | 6.22 | – | – | – | –
11 | Cc1cc(OS(=O)(=O)Cc2ccoc2[N+](=O)[O-])ccc1N(CCCl)CCCl [TH-1117] | 5.64 | 5.96 | – | – | – | –
12 | CN(c1ccc(N(CCCl)CCCl)cc1)S(=O)(=O)Cc1ccsc1[N+](=O)[O-] [TH-1118] | 4.89 | 5.17 | – | – | – | –
13 | Cn1c(CN(c2ccc(N(CCCl)CCCl)cc2)S(=O)(=O)CCl)cnc1[N+](=O)[O-] [TH-1119] | < 3.52 | < 3.52 | – | – | – | –
14 | Cc1cc(OS(=O)(=O)C(C)(C)c2ccsc2[N+](=O)[O-])ccc1N(CCCl)CCCl [TH-1121] | 5.89 | 6.52 | – | – | – | –
15 | CC(c1ccc([N+](=O)[O-])cc1)S(=O)(=O)N(C)c1ccc(N(CCCl)CCCl)cc1 (centres unmarked) [TH-1122] | < 3.52 | < 3.52 | – | – | – | –
16 | CN(c1ccc(N(CCCl)CCCl)cc1)S(=O)(=O)Cc1ccc([N+](=O)[O-])cc1 [TH-1123] | < 3.52 | < 3.52 | – | – | – | –
17 | CN(c1ccc(N(CCCl)CCCl)cc1)S(=O)(=O)C(C)(C)c1ccc([N+](=O)[O-])cc1 [TH-1124] | 3.54 | 3.61 | – | – | – | –
18 | Cc1cc(CS(=O)(=O)N(C)c2ccc(N(CCCl)CCCl)cc2)c([N+](=O)[O-])s1 [TH-1125] | 3.83 | 4.16 | – | – | – | –
19 | Cn1c(CN(c2ccc(N(CCCl)CCCl)cc2)S(=O)(=O)C(F)(F)F)cnc1[N+](=O)[O-] [TH-1128] | 3.57 | 3.53 | – | – | – | –
20 | CN(c1ccc(N(CCCl)CCCl)cc1)S(=O)(=O)Cc1nc(-c2ccccc2)c([N+](=O)[O-])n1C [TH-1129] | 5.16 | 5.44 | – | – | – | –
21 | CN(c1ccc(N(CCCl)CCCl)cc1)S(=O)(=O)C(C)(C)c1nc(-c2ccccc2)c([N+](=O)[O-])n1C [TH-1130] | 3.91 | 4.19 | – | – | – | –
22 | Cc1cc(CS(=O)(=O)Oc2ccc(N(CCCl)CCCl)c(C)c2)c([N+](=O)[O-])s1 [TH-1131] | 6.00 | 6.52 | – | – | – | –
23 | Cc1cc(C(C)(C)S(=O)(=O)Oc2ccc(N(CCCl)CCCl)c(C)c2)c([N+](=O)[O-])s1 [TH-1132] | 5.70 | 6.52 | – | – | – | –
24 | O=[N+]([O-])c1nccn1CS(=O)(=O)Nc1cc(F)c(N(CCCl)CCCl)c(F)c1 [TH-1133] | 4.95 | 5.23 | – | – | – | –
25 | Cc1cc(OS(=O)(=O)C(C)(C)n2ccnc2[N+](=O)[O-])ccc1N(CCCl)CCCl [TH-1134] | 6.70 | > 7.00 | – | – | – | –

Row | SMILES | pIC50 (H460; [1]) | pIC50 (H460; [2]) | H460 HCR: Air/N2 (H460) | pIC50 (H460; [3]) | pIC50 (H460; [4]) | also measured
26 | CN(c1cc(F)c(N(CCCl)CCCl)c(F)c1)S(=O)(=O)Cn1ccnc1[N+](=O)[O-] [TH-1135] | 5.04 | 5.47 | – | – | – | –
27 | CN(c1cc(F)c(N(CCCl)CCCl)c(F)c1)S(=O)(=O)C(C)(C)n1ccnc1[N+](=O)[O-] [TH-1136] | 5.29 | 5.30 | – | – | – | –
28 | Cn1c(CS(=O)(=O)Nc2cc(F)c(N(CCCl)CCCl)c(F)c2)cnc1[N+](=O)[O-] [TH-1137] | 4.69 | 5.08 | – | – | – | –
29 | CN(c1cc(F)c(N(CCCl)CCCl)c(F)c1)S(=O)(=O)Cc1cnc([N+](=O)[O-])n1C [TH-1138] | 4.47 | 4.87 | – | – | – | –
30 | O=[N+]([O-])c1sccc1C(Cc1ccc2c(ccn2CCO)c1)S(=O)(=O)Oc1ccc(N(CCCl)CCCl)cc1 (centres unmarked) [TH-1140] | – | – | 114 | 3.94 | 6.00 | –
31 | CN(c1ccc(N(CCBr)CCBr)cc1)S(=O)(=O)Cn1ccnc1[N+](=O)[O-] [TH-1141] | 6.30 | 7.00 | – | – | – | –
32 | CCc1nc([N+](=O)[O-])n(C)c1CS(=O)(=O)N(C)c1ccc(N(CCCl)CCCl)cc1 [TH-1145] | 4.11 | 5.42 | – | – | – | –
33 | O=[N+]([O-])c1sccc1CS(=O)(=O)Oc1ccc(N(CCCl)CCCl)c(F)c1 [TH-1192, 3-((3-Fluoro-4-(N,N-bis-(2-chloroethyl)amino)phenoxy)sulfonyl)methyl-2-nitrothiophene] | – | – | 39 | 4.23 | 5.82 | HT29 HCR: Air/N2 (HT29): 20; pIC50 (HT29; read-out: 2 hr Air HT29 IC50): 3.79; pIC50 (HT29; read-out: 2 hr N2 HT29 IC50): 5.10
34 | O=[N+]([O-])c1sccc1C(CNS(=O)(=O)c1ccccc1)S(=O)(=O)Oc1ccc(N(CCCl)CCCl)cc1 (centres unmarked) [TH-1218, 3-(4-(N,N-bis-(2-Chloroethyl)amino)phenoxysulfonyl-(phenylsulfonylaminomethyl))methyl-2-nitrothiophene] | – | – | 106 | 4.13 | 6.15 | pIC50 (HT29; read-out: 2 hr Air HT29 IC50): < 3.52; pIC50 (HT29; read-out: 2 hr N2 HT29 IC50): < 3.52
35 | Nc1ccc(CC(c2ccsc2[N+](=O)[O-])S(=O)(=O)Oc2ccc(N(CCCl)CCCl)cc2)cn1 (centres unmarked) [TH-1255, 3-(4-(N,N-bis-(2-Chloroethyl)amino)phenoxysulfonyl-(2-aminopyridin-5-yl-methyl))methyl-2-nitrothiophene trifluoroacetate] | – | – | 30.7 | 4.21 | 5.70 | HT29 HCR: Air/N2 (HT29): 16; pIC50 (HT29; read-out: 2 hr Air HT29 IC50): 3.69; pIC50 (HT29; read-out: 2 hr N2 HT29 IC50): 4.89
36 | CS(=O)(=O)N(c1ccc(CC(c2ccsc2[N+](=O)[O-])S(=O)(=O)Oc2ccc(N(CCCl)CCCl)cc2)cn1)S(C)(=O)=O (centres unmarked) [TH-1257] | – | – | 424.0 | 3.67 | 6.30 | pIC50 (HT29; read-out: 2 hr Air HT29 IC50): < 3.52; pIC50 (HT29; read-out: 2 hr N2 HT29 IC50): < 3.52
37 | O=[N+]([O-])c1sccc1C(Cc1ccc(NS(=O)(=O)C(F)(F)F)nc1)S(=O)(=O)Oc1ccc(N(CCCl)CCCl)cc1 (centres unmarked) [TH-1262] | – | – | 150 | 4.05 | 6.22 | –
38 | CC(=O)Nc1ccc(CC(c2ccsc2[N+](=O)[O-])S(=O)(=O)Oc2ccc(N(CCCl)CCCl)cc2)cn1 (centres unmarked) [TH-1271] | – | – | 236 | 3.63 | 6.00 | HT29 HCR: Air/N2 (HT29): 1.3; pIC50 (HT29; read-out: 2 hr Air HT29 IC50): 3.01; pIC50 (HT29; read-out: 2 hr N2 HT29 IC50): 3.12
39 | CS(=O)(=O)Nc1ccc(CC(c2ccsc2[N+](=O)[O-])S(=O)(=O)Oc2ccc(N(CCCl)CCCl)cc2)cn1 (centres unmarked) [TH-1272] | – | – | 91 | 3.54 | 5.49 | –
40 | O=[N+]([O-])c1sccc1C(CCS(=O)(=O)c1ccccc1)S(=O)(=O)Oc1ccc(N(CCCl)CCCl)cc1 (centres unmarked) [TH-1278] | – | – | 205 | 4.21 | 6.52 | pIC50 (HT29; read-out: 2 hr Air HT29 IC50): < 3.00; pIC50 (HT29; read-out: 2 hr N2 HT29 IC50): < 3.00
41 | Cc1ccc(S(=O)(=O)NCC(c2ccsc2[N+](=O)[O-])S(=O)(=O)Oc2ccc(N(CCCl)CCCl)cc2)cc1 (centres unmarked) [TH-1312] | – | – | 31 | 3.91 | 5.41 | –
42 | O=[N+]([O-])c1sccc1C(Cc1ccc(Cl)nc1)S(=O)(=O)Oc1ccc(N(CCCl)CCCl)cc1 (centres unmarked) [TH-1341] | – | – | 43 | 3.84 | 5.47 | –
43 | CC(C)(C)OC(=O)NCC(=O)Nc1ccc(CC(c2ccsc2[N+](=O)[O-])S(=O)(=O)Oc2ccc(N(CCCl)CCCl)cc2)cn1 (centres unmarked) [TH-1351] | – | – | 49 | ~3.52 | 5.21 | –
44 | O=[N+]([O-])c1sccc1C(Cc1ccc(N2CCC[C@H]2CO)nc1)S(=O)(=O)Oc1ccc(N(CCCl)CCCl)cc1 (some centres unmarked) [TH-1430] | – | – | 500 | 3.52 | 6.22 | –
45 | CN(CCO)c1ccc(CC(c2ccsc2[N+](=O)[O-])S(=O)(=O)Oc2ccc(N(CCCl)CCCl)cc2)cn1 (centres unmarked) [TH-1434] | – | – | 83 | 4.30 | 6.22 | –
46 | O=[N+]([O-])c1sccc1C(Cc1ccc(O[C@@H]2CCC[C@H]2O)nc1)S(=O)(=O)Oc1ccc(N(CCCl)CCCl)cc1 (some centres unmarked) [TH-1452] | – | – | 55 | 3.96 | 5.70 | –
47 | O=[N+]([O-])c1sccc1C(Cc1ccc2nn(CCO)nc2c1)S(=O)(=O)Oc1ccc(N(CCCl)CCCl)cc1 (centres unmarked) [TH-1458] | – | – | 60 | 4.52 | 6.30 | –
48 | C[C@H](O)C(=O)Nc1ccc(CC(c2ccsc2[N+](=O)[O-])S(=O)(=O)Oc2ccc(N(CCCl)CCCl)cc2)cc1 (some centres unmarked) [TH-1468] | – | – | 75 | 4.52 | 6.40 | –
49 | COCC(=O)Nc1ccc(CC(c2ccsc2[N+](=O)[O-])S(=O)(=O)Oc2ccc(N(CCCl)CCCl)cc2)cn1 (centres unmarked) [TH-1477] | – | – | 43 | 4.89 | 6.52 | –
50 | C[C@H](O)[C@H](C)Oc1ccc(CC(c2ccsc2[N+](=O)[O-])S(=O)(=O)Oc2ccc(N(CCCl)CCCl)cc2)cn1 (some centres unmarked) [TH-1486] | – | – | 36 | 4.44 | 6.00 | –

From patent publication US8309554B2 (priority 2008, dated 2012)
